These results are taken from PubChem BioAssay (NCI).

SMILES strings stand for the structures.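 Step 1: Grow cells in 96-well plates. Step 2: Expose to compound for 48 hours at 5 concentrations. Step 3: Interpolate endpoints linearly; if unreached, use highest concentration. At the TGI there is no net growth.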

Among the test systems are SK-MEL-5 melanoma; DU-145 prostate; UO-31 renal; SR leukemia; IGROV1 ovarian; ACHN renal; SK-MEL-28 melanoma; RXF 393 renal; MDA-N; SN12C renal; NCI/ADR-RES ovarian; COLO 205 colon; OVCAR-8 ovarian; MALME-3M melanoma; RPMI-8226 leukemia; CCRF-CEM leukemia; NCI-H23 lung; T-47D breast.
What all share (assay): growth of human tumour cells (NCI), 48 h

Consider `C1CN2CCNCCN(CCN1)CC2`, for which the TGI in the test on SK-MEL-5 melanoma, in the test on DU-145 prostate, in the test on UO-31 renal, in the test with SR leukemia, in the test with IGROV1 ovarian and with ACHN renal was above 100 µM in each case. Besides, the TGI in the test on SK-MEL-28 melanoma, with RXF 393 renal, in the test with MDA-N, in the test with SN12C renal, in the test on NCI/ADR-RES ovarian and in the test on COLO 205 colon was above 100 µM in each case. The TGI with OVCAR-8 ovarian, in the test with MALME-3M melanoma, with RPMI-8226 leukemia, in the test on CCRF-CEM leukemia, in the test on NCI-H23 lung and in the test on T-47D breast was above 100 µM each time.

`CN(CCCn1ccnc1[N+](=O)[O-])CCCn1ccnc1[N+](=O)[O-]`: the TGI in the test on SK-MEL-5 melanoma, in the test on DU-145 prostate, with UO-31 renal, in the test with SR leukemia, in the test on IGROV1 ovarian and in the test with ACHN renal was above 100 µM throughout. For the same molecule, the TGI in the test with SK-MEL-28 melanoma, in the test on RXF 393 renal, with MDA-N, in the test with SN12C renal, with NCI/ADR-RES ovarian and in the test on COLO 205 colon was above 100 µM each time. Besides, the TGI in the test on OVCAR-8 ovarian, in the test on MALME-3M melanoma, with RPMI-8226 leukemia, with CCRF-CEM leukemia, in the test with NCI-H23 lung and in the test with T-47D breast was above 100 µM each time.

As for `CCOC(=O)C(Cc1ccc(N(CCCl)CCCl)cc1)NC(=O)CCCN1C(=O)CN=C(c2ccccc2)c2cc(Cl)ccc21` (centres undefined), the TGI with SK-MEL-5 melanoma is 25.2 µM; in the test with DU-145 prostate, above 64.7 µM; in the test on UO-31 renal, 30.8 µM; in the test with SR leukemia, above 27.3 µM; with IGROV1 ovarian it was 16.9 µM; in the test on ACHN renal, 22.5 µM. In addition, the TGI in the test on SK-MEL-28 melanoma is 8.35 µM; with RXF 393 renal, 8.77 µM; in the test with MDA-N, 19.1 µM; in the test with SN12C renal, 14.5 µM; in the test with NCI/ADR-RES ovarian, above 87.1 µM; with COLO 205 colon, 37.8 µM. Moreover, the TGI was above 100 µM with OVCAR-8 ovarian; 7.71 µM in the test with MALME-3M melanoma; 20.7 µM in the test with RPMI-8226 leukemia; above 100 µM in the test with CCRF-CEM leukemia; above 39 µM in the test on NCI-H23 lung; 11.2 µM in the test on T-47D breast.
